The assay addresses T1, EFA6R (GFP-EFA6R), isoform B (Homo sapiens, UniProt Q9NYI0).
T1 construct: gene PSD3; full-length isoform B, N-terminal GFP tag (pEGFPC2), transiently expressed in COS7 cells, lysate used; endogenous protein runs at 56 kDa
Nature of the assay: competition pulldown: displacement from biotinylated PI-avidin beads by soluble diC8 lipid, immunoblot densitometry. The note with it: concentration blocking 50% of binding to PI 4,5-P2 beads (in the methods PI 3,4-P2 beads); cell lysate, pH 7.4, 150 mM NaCl, 0.5% Nonidet P-40, 4 °C; PH domain; read-out: EC50 (the source's name). (In general: A western blot detects proteins with antibodies after separation by electrophoresis.)
T1 sequence (Q9NYI0 1-513 isoform Q9NYI0-3 limits assumed): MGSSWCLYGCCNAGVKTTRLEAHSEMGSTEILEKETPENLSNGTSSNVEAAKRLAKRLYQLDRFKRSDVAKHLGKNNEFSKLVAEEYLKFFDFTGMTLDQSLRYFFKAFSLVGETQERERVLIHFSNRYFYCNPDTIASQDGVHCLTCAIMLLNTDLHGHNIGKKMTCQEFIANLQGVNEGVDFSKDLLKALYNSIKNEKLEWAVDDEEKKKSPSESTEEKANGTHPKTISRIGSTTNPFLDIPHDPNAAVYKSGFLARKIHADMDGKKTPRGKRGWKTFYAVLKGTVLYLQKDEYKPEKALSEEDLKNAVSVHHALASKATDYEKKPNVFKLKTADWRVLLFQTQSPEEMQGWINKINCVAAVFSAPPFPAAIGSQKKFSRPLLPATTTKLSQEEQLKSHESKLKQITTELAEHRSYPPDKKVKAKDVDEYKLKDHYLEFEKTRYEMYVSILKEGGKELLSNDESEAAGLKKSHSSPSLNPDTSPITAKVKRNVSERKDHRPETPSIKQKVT
Regarding `CCCCCCCC(=O)OC[C@H](COP(=O)(O)O[C@H]1[C@H](O)[C@@H](OP(=O)(O)O)[C@H](OP(=O)(O)O)[C@@H](OP(=O)(O)O)[C@H]1O)OC(=O)CCCCCCC` [PI 3,4,5-trisphosphate], the IC50 is over 10 µM. Consider `CCCCCCCC(=O)OC[C@H](COP(=O)(O)O[C@H]1[C@H](O)[C@@H](O)[C@H](OP(=O)(O)O)[C@@H](OP(=O)(O)O)[C@H]1O)OC(=O)CCCCCCC` [PI 3,4-P2], for which the IC50 was over 10 µM.

With `CCCCCCCC(=O)OC[C@H](COP(=O)(O)O[C@@H]1[C@H](O)[C@H](OP(=O)(O)O)[C@@H](O)[C@H](O)[C@H]1O)OC(=O)CCCCCCC` [PI 3-phosphate], the IC50 is over 10 µM.

As to `CCCCCCCC(=O)OC[C@H](COP(=O)(O)O[C@@H]1[C@H](O)[C@H](O)[C@@H](OP(=O)(O)O)[C@H](OP(=O)(O)O)[C@H]1O)OC(=O)CCCCCCC` [PI 4,5-P2], the IC50 stood at 1.1 µM.

For the origin of these results see paper PMC4246094, “Exchange Factor EFA6R Requires C-terminal Targeting to the Plasma Membrane to Promote Cytoskeletal Rearrangement through the Activation of ADP-ribosylation Factor 6 (ARF6)” (The Journal of Biological Chemistry, 2014).
